Article PMC3365043, “Receptor-Targeting Phthalocyanine Photosensitizer for Improving Antitumor Photocytotoxicity” (PLoS ONE, 2012)
Like-named read-outs stand apart in the source and are kept apart here.

What was measured:
[1] = in DMSO; ref 20; cited from earlier work
Description: Table 1 Photophysical parameters of ZnPc-GnRH conjugate in DMSO compared to that of ZnPc in DMSO. | column: Фf

[2] = in DMSO, cited from earlier work
Description: Table 1 Photophysical parameters of ZnPc-GnRH conjugate in DMSO compared to that of ZnPc in DMSO. | column: τs (ns)

S180 tumor-bearing mice = details: cited from earlier work
Description: We previously described a peptide-conjugated photosensitizer (ZnPc-(Lys)5), zinc phthalocyanine (ZnPc) conjugated with pentalysine peptidyl moiety, and reported its in vitro and in vivo efficacy. The pentalysine peptide renders water solubility of ZnPc that is otherwise not soluble in physiological condition and requires specialized formulation with, e.g., Cremophor EL. […] Herein we report the synthesis and the physicochemical characterization of this ZnPc-GnRH conjugate, along with the evaluation of its photodynamic activity at cellular level. […] This work p ...

MDA-MB-231 [3] = assay: Phototoxicity and dark toxicity, AlamarBlue cell viability; details: read-out: Phototoxicity IC50 (50% growth inhibition), 12 hr incubation, 670 nm laser, 1.5 J cm−2, viability after 24 hr
Description: (§1) The cell lines we used in the current study were human breast cancer cell lines (MDA-MB-231 and MCF-7), human hepatoblastoma cell line (HepG2) and human embryo lung fibroblasts (HELF). All these cell lines were purchased from American Type Culture Collection (ATCC, Manassas, VA, USA).
(§2) MDA-MB-231 and MCF-7 cells were maintained routinely in Dulbecco’s modified Eagle’s medium (DMEM) supplemented with 10% fetal calf serum (FCS) and antibiotics. HepG2 and HELF cells were grown in RPMI-1640 supplemented with 10% FCS and antibiotics. All cells were kept at 37°C in a humidified incubator with 5% CO2 atmosphere. The viability of cells was determined by Trypan blue dye exclusion. Cells were maintained in logarithmic phase with viability >95%.
(§3) Cells at a density of 2.5×10^5 per ml in a volume of 200 µl per well were placed in 96-multiwell black opaque plates and incubated overnight at 37°C under 5% CO2. […] The plates were illuminated at a light dosage of 1.5 J cm^−2 using a 670 nm SAS-DL3 medical laser (Beijing Shou’anshan Electronic Technology Co. Ltd. Beijing, China) and then returned to incubator; dark toxicity was measured in parallel. After 24 hr incubation, cell viability was measured on a microplate reader (Synergy 4, BioTek Instruments) using the AlamarBlue® fluorometric cell viability assay (BioSource International Inc., Camarillo, CA, USA) with λex 530 nm and λem 585 nm. […]

[4] = Fluorescence quantum yield, comparative method with ZnPc as standard; type: physicochemical; details: in DMSO, ZnPc standard (Фf 0.2)
Description: Fluorescence quantum yield (Фf) of ZnPc-GnRH conjugate was measured by a comparative method using ZnPc as a standard (Фf (ZnPc) in DMSO = 0.2) using the Eq. (1) [drawing 1] (1) where Фf and Ф0 are fluorescence quantum yields of the conjugate and standard, respectively. Au and A0 are absorbances of the conjugate and standard, respectively. Fu and F0 are areas under the emission curves of the conjugate and standard, respectively. nu and n0 are refractive indices of the solvents used for the conjugate and standard, respectively. The fluorescence of the conjugate and standard were measured on a Cary Eclipse Fluorescence spectrophotometer (Varian, Inc., Walnut Creek, CA).

HELF [5] = test system: HELF
Description: as §1, §2, §3

MCF-7 [6] = assay: Phototoxicity and dark toxicity, AlamarBlue cell viability; details: read-out: Phototoxicity IC50 (50% growth inhibition), 12 hr incubation, 670 nm laser, 1.5 J cm−2, viability after 24 hr
Description: as §1, §2, §3

[7] = Singlet oxygen quantum yield determination (DPBF decay); type: physicochemical; details: in DMSO; 0.5 µM; DPBF decay at 417 nm; 670 nm laser at 80 mW cm−2; ZnPc reference (0.67); error less than 10%
Description: The PDT effect of ZnPc type photosensitizer is usually mediated by type II mechanism involving singlet oxygen (^1O2) as major cytotoxic agent. The quantum yield of ^1O2 generation by ZnPc-GnRH was determined by comparing with the un-substituted zinc phthalocyanine (ZnPc) as reference, which has a quantum yield of 0.67 in DMSO [21]. Briefly, a 2 ml DMSO solution of the mixture of the ZnPc-GnRH conjugate (0.5 µM) and 1,3-diphenylisobenzofuran (DPBF, a scavenger molecule for ^1O2), was introduced to the spectrophotometric cell of 1 cm path length and illuminated with a laser light (670 nm at 80 mW cm^−2) in the presence of air (without degassing). The DPBF decay at 417 nm was monitored every 5 s. The concentration of DPBF was kept lower than 3×10^−5 M during the experiment to avoid chain reactions induced by DPBF in the presence of ^1O2. The quantum yield measurement has an error of less than 10%.

HepG2 [8] = test system: HepG2
Description: as §1, §2, §3

MDA-MB-231 [9] = test system: MDA-MB-231
Description: as §1, §2, §3

[10] = Fluorescence decay time by time-correlated single photon counting; type: physicochemical; details: in DMSO, 300 K, fitted decay curve
Description: Fluorescence decay time (τs) of ZnPc-GnRH conjugate was measured by time-correlated single photon counting experiment of fluorescence excited with a 1.2 ns pulse laser diode at 460 nm, performed on an Edinburgh Instruments FLS920 spectrofluorometer (Livingston, UK) at 300 K. Fluorescence lifetimes were estimated by fitting the decay data using an interactive deconvolution procedure based on Marquardt algorithm with software supplied by OriginLab.

MCF-7 [11] = test system: MCF-7
Description: as §1, §2, §3

HELF [12] = assay: Cellular uptake (fluorescence of cell lysate); type: cell-based, human; details: 10^−7 to 10^−4.5 M, 12 hr, 37°C, 0.2% Cremophor EL (ZnPc-COOH), mean of four experiments
Description: (§4) Aliquots of cells (2.5×10^5 per ml growth medium) were placed in 96-multiwell black opaque plates (Costa) and incubated overnight at 37°C under 5% CO2. Various concentrations (10^−7, 10^−6.5, 10^−6, 10^−5.5, 10^−5 and 10^−4.5 M) of ZnPc-GnRH conjugate (in 1% DMSO) or ZnPc-COOH (in an additional 0.2% Cremophor EL) were added and incubated with cells at 37°C. After 12 hr incubation, the exponentially growing cells were washed with sterile PBS before lysis with NaOH (0.1 N, 0.2 ml with 1% SDS) to give a homogenous solution. The fluorescence of the cell extract was measured on a microplate reader (Synergy 4, BioTek Instruments) with λex = 610 nm and λem = 690 nm. The concentration of cellular protein was determined with a BCA Protein Assay Kit (BioTeke Corporation, Beijing, China). Standard curves were made with cell lysates treated as above with known added amounts of bovine serum albumin. Results are expressed as nmol photosensitizer per mg cell protein.

HepG2 [13] = assay: Cellular uptake (fluorescence of cell lysate); type: cell-based, human; details: 10^−7 to 10^−4.5 M, 12 hr, 37°C, 0.2% Cremophor EL (ZnPc-COOH), mean of four experiments
Description: as §4

MDA-MB-231 [14] = assay: Cellular uptake (fluorescence of cell lysate); details: 10^−7 to 10^−4.5 M, 12 hr, 37°C, 1% DMSO (ZnPc-GnRH) or 0.2% Cremophor EL (ZnPc-COOH), mean of four experiments
Description: as §4

MCF-7 [15] = assay: Cellular uptake (fluorescence of cell lysate); details: 10^−7 to 10^−4.5 M, 12 hr, 37°C, 1% DMSO (ZnPc-GnRH) or 0.2% Cremophor EL (ZnPc-COOH), lysate fluorescence λex 610/λem 690 nm, mean of four experiments
Description: as §4

Description for MCF-7 cells: 200 µl of MCF-7 cells (at a density of 2.5×10^5 per ml) were seeded in each well of 96-multiwell black opaque plates and incubated overnight at 37°C under 5% CO2. After treated with or without Cetrorelix (at a concentration of 7.5×10^−7 M), a GnRH antagonist, for 12 hr at 37°C, MCF-7 cells were washed twice with sterile PBS before fresh medium was added. These exponentially growing MCF-7 cells were then allowed to incubate with ZnPc-GnRH conjugate (at a concentration of 5×10^−6 M) for various time periods (5, 10, 20, 40, 80, 120 and 180 min) before the cellular uptakes were measured at different incubation time points as described above to determine the cellular uptake curves.

Compound: [Zn+2].c1ccc2c(c1)-c1nc-2nc2[n-]c(nc3nc([n-]c4nc(n1)-c1ccccc1-4)-c1ccccc1-3)c1ccccc21 [ZnPc, Zinc phthalocyanine]
- Fluorescence quantum yield (Фf) [1]: 0.20 [20]
- Fluorescence decay time (τs) ([2]; ref 23): 1.22 ns
- Fluorescence decay time (τs) ([2]; ref 24): 3.6 ns
- Distribution in murine brain (S180 tumor-bearing mice; murine brain): very low level of distribution

Compound: CC(C)C[C@H](NC(=O)CNC(=O)[C@H](Cc1ccc(O)cc1)NC(=O)[C@H](CO)NC(=O)[C@H](Cc1c[nH]c2ccccc12)NC(=O)[C@H](Cc1c[nH]cn1)NC(=O)[C@H](CCC(=O)O)NC(=O)c1ccc2c3nc4nc(nc5[nH]c(nc6nc(nc([nH]3)c2c1)-c1ccccc1-6)c1ccccc51)-c1ccccc1-4)C(=O)N[C@@H](CCCNC(=N)N)C(=O)N1CCC[C@H]1C(=O)NCC(=O)O [ZnPc-GnRH]
- IC50 (MDA-MB-231 [3]): 1.32 µM
- Fluorescence quantum yield (Фf) [4]: 0.17
- Dark toxicity (HELF [5]): no obvious cellular dark toxicity
- Phototoxicity (HELF [5]; HELF, 10^−7 to 10^−4.5 M, 12 hr incubation, 670 nm, 1.5 J cm−2): no significant phototoxicity
- Time at which cellular uptake reached the maximal level (MCF-7 cells): ~2 h
- IC50 (MCF-7 [6]): 1.82 µM
- Singlet oxygen quantum yield (ФΔ) [7]: 0.73
- Dark toxicity (HepG2 [8]): no obvious cellular dark toxicity
- Phototoxicity (HepG2 [8]; HepG2, 10^−7 to 10^−4.5 M, 12 hr incubation, 670 nm, 1.5 J cm−2): no significant phototoxicity
- Dark toxicity (MDA-MB-231 [9]): no obvious cellular dark toxicity
- Fluorescence decay time (τs) [10]: 2.7 ns
- Dark toxicity (MCF-7 [11]): no obvious cellular dark toxicity

Compound: Mono-substituted β-carboxyphthalocyanine zinc [ZnPc-COOH]
- Cellular uptake (HELF [12]): low levels of cellular uptakes
- Cellular uptake (HepG2 [13]): low levels of cellular uptakes
- Cellular uptake (MDA-MB-231 [14]): low levels of cellular uptakes
- Cellular uptake (MCF-7 [15]): low levels of cellular uptakes

Compound: pentalysine phthalocyanine zinc [ZnPc-(Lys)5]
- Selectivity for tumor over brain tissue (S180 tumor-bearing mice; S180 tumor-bearing mice): 6 fold
- Selectivity for tumor over muscle tissue (S180 tumor-bearing mice; S180 tumor-bearing mice): 2 fold
